Laboratory results from patent publication US7812022B2 (GlaxoSmithKline LLC, priority 2004, dated 2010).
Read-outs that look alike come from different tables or passages of the source.

How the values were obtained:
[1] = target: T1, ErbB2 or EGFR; assay: ErbB family substrate phosphorylation enzyme assay (HTRF), Method A or Method B; format: biochemical
T1 construct: enzymes purified from a baculovirus expression system; Reagent production was conducted essentially as described in Brignola, P. S., et al, (2002) J. Biol. Chem. 277(2): 1576-1585
Summary of the method: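 Baculovirus-expressed EGFR or ErbB2 (0.8 or 10 nM in enzyme mix) phosphorylates biotinylated Peptide C with 20 µM ATP and 0.8 µM peptide (substrate-mix levels), MnCl2, pH 7.5. Reaction ran 90 min at 20 °C with EDTA stop and HTRF anti-phosphotyrosine read. Method A: enzyme added last; Method B: 1 h enzyme–compound preincubation.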

[2] = test system: Colo205 tumor cell lines; assay: Methylene blue growth inhibition assay (cellular Method A), Colo205; format: cell-based, Human; conditions: 3 days, read-out: Activity (Method): growth inhibition IC50 class
Experimental: Human breast (BT474) and head and neck (HN5) were cultured in low glucose DMEM (Life Technologies 12320-032) containing 10% fetal bovine serum (FBS). Human colon tumor cells (Colo205) were cultured in DMEM (Invitrogen, 10564) containing 10% FBS. The SV40 transformed human mammary epithelial cell line HB4a was transfected with either human H-ras cDNA (HB4a r4.2) or the human c-ErbB2 cDNA (HB4a c5.2). The HB4a clones were cultured in RPMI containing 10% FBS, insulin (5 g/mL), hydrocortisone (5 g/mL), supplemented with the selection agent hygromycin B (50 g/mL). All lines were grown in a humidified incubator at 37° C. in 95% air, 5% CO2. Cells were harvested using trypsin/EDTA, counted using a haemocytometer, and plated in 100 microliters of the appropriate media, at the following densities, in a 96-well tissue culture plate (Falcon 3075): BT474 10,000 cells/well, HN5 3,000 cells/well. The next day, compounds were diluted in DMEM containing […] gentamicin, at twice the final required concentration, from 10 mM stock solutions in DMSO. 100 microliters/well of these dilutions were added to the 100 microliters of media currently on the cell plates. Medium containing 0.6% DMSO was added to control wells. Compounds diluted in DMEM were added to all cell lines. The final concentration of DMSO in all wells was 0.3%. Cells were returned to the incubator (37° C., 10% CO2) for 3 days. Medium was then removed by aspiration. Cell biomass was estimated by staining cells with 90 microliters per well methylene blue (Sigma M9140, 0.5% in 1:1 ethanol:water), and incubation at rt for at least 30 minutes. Stain was removed, and the plates rinsed by immersion in deionized water and air-dried. To release stain from the cells 100 microliters of solubilization solution was added (1% N-lauroyl sarcosine, Sodium salt, Sigma L5125, in PBS), and plates were shaken gently for about 30 minutes. Optical density at 620 nm was measured on a microplate reader. Percent inhibition of cell growth was calculated relative to vehicle treated control wells. Concentration of compound that inhibits 50% of control cell growth (IC50) was interpolated using nonlinear regression (Levenberg-Marquardt) and the equation, y=Vmax*(1−(x/(K+x)))+Y2, where “K” was equal to the IC50. Method B: Celltiter Glo® Growth Inhibition Assays

[3] = test system: BT474 and HN5 tumor cell lines; assay: Methylene blue growth inhibition assay (cellular Method A); format: cell-based, Human; conditions: 3 days, read-out: Activity (Method): growth inhibition IC50 class
Summary of the method: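 Colo205, BT474 and HN5 cells in DMEM/10% FBS (BT474 10,000, HN5 3,000 cells/well) treated next day with compound in DMEM, 0.3% final DMSO, for 3 days at 37° C. Biomass stained with methylene blue, solubilized, read at OD 620; IC50 interpolated by nonlinear regression from % inhibition versus vehicle.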

[4] = Method B: enzyme mix pre-incubated with compound 1 hour at 20° C., started with substrate mix
[5] = Method A: substrate mix added first, reaction started with enzyme mix

SMILES | IC50 ([2]; Homo sapiens, COLO 205, 72 h) | IC50 ([3]; Homo sapiens, BT-474, 72 h) | IC50 [2] | IC50 [3] | Activity (Method): pIC50 class against ErbB2 or EGFR [1, 4] | Activity (Method): pIC50 class against ErbB2 or EGFR [1, 5]
COc1cccc(C(=O)Nc2cccc(-c3nn4ccccc4c3-c3ccnc(Nc4ccc5c(c4)OCCO5)n3)c2)c1 [Example 5, N-(3-{3-[2-(2,3-Dihydro-benzo[1,4]dioxin-6-ylamino)-pyrimidin-4-yl]-pyrazolo[1,5]-pyridin-2-yl}-phenyl)-3-methoxy-benzamide] | > 1000 nM | 100 to 1000 nM |  |  |  | +++ (A) (at least one pIC50 measurement of greater than 7 against either ErbB2 or EGFR)
O=C(Nc1cccc(-c2nn3ccccc3c2-c2ccnc(Nc3ccc4c(c3)OCCO4)n2)c1)c1ccccc1 [Example 4, N-(3-{3-[2-(2,3-Dihydro-benzo[1,4]dioxin-6-ylamino)-pyrimidin-4-yl]-pyrazolo[1,5-]pyridin-2-yl}-phenyl)-benzamide] | 100 to 1000 nM | < 100 nM |  |  |  | +++ (A) (at least one pIC50 measurement of greater than 7 against either ErbB2 or EGFR)
Cc1ccc(F)c(C(=O)Nc2cccc(-c3nn4ccccc4c3-c3ccnc(Nc4cccc(OCCN(C)C)c4)n3)c2)c1F [Example 190, N-[3-(3-{2-[(3-{[2-(Dimethylamino)ethyl]oxy}phenyl)amino]-4-pyrimidinyl}pyrazolo[1,5-a]pyridin-2-yl)phenyl]-2,6-difluoro-3-methylbenzamide] | 100 to 1000 nM | < 100 nM |  |  | +++ (B) (at least one pIC50 measurement of greater than 7 against either ErbB2 or EGFR) | 
CN(C)Cc1ccc(Nc2nccc(-c3c(-c4cccc(NC(=O)c5c(F)cccc5F)c4)nn4ccccc34)n2)cc1 [Example 108, N-(3-{3-[2-({4-[(Dimethylamino)methyl]phenyl}-amino)-4-pyrimidinyl]pyrazolo[1,5-a]pyridin-2-yl}phenyl)-2,6-difluorobenzamide] | < 100 nM | < 100 nM |  |  | +++ (B) (at least one pIC50 measurement of greater than 7 against either ErbB2 or EGFR) | 
O=C(Nc1cccc(-c2nn3ccccc3c2-c2ccnc(Nc3cccc(CCN4CCOCC4)c3)n2)c1)c1c(F)cccc1F [Example 54, 2,6-Difluoro-N-(3-{3-[2-({3-[2-(4-morpholinyl)ethyl]-phenyl}amino)-4-pyrimidinyl]pyrazolo[1,5-a]pyridin-2-yl}phenyl)benzamide] | 100 to 1000 nM | < 100 nM |  |  |  | +++ (A) (at least one pIC50 measurement of greater than 7 against either ErbB2 or EGFR)
CN1CCN(Cc2cccc(Nc3nccc(-c4c(-c5cccc(NC(=O)c6c(F)cccc6F)c5)nn5ccccc45)n3)c2)CC1 [Example 57, 2,6-Difluoro-N-(3-{3-[2-({3-[(4-methyl-1-piperazinyl)-methyl]phenyl}amino)-4-pyrimidinyl]pyrazolo[1,5-a]pyridin-2-yl}phenyl)benzamide] | 100 to 1000 nM | < 100 nM |  |  | +++ (B) (at least one pIC50 measurement of greater than 7 against either ErbB2 or EGFR) | 
O=C(Nc1cccc(-c2nn3ccccc3c2-c2ccnc(Nc3ccc(OCCN4CCOCC4)c(Cl)c3)n2)c1)c1c(F)cccc1F [Example 127, N-[3-(3-{2-[(3-Chloro-4-{[2-(4-morpholinyl)ethyl]-oxy}phenyl)amino]-4-pyrimidinyl}pyrazolo[1,5-a]pyridin-2-yl)phenyl]-2,6-difluorobenzamide] | 100 to 1000 nM | < 100 nM |  |  | +++ (B) (at least one pIC50 measurement of greater than 7 against either ErbB2 or EGFR) | 
COc1cc(CS(C)(=O)=O)ccc1Nc1nccc(-c2c(-c3cccc(NC(=O)c4c(F)cccc4F)c3)nn3ccccc23)n1 [Example 122] |  |  | 100 to 1000 nM | 100 to 1000 nM | +++ (B) (at least one pIC50 measurement of greater than 7 against either ErbB2 or EGFR) | 
COc1cc(Nc2nccc(-c3c(-c4cccc(NC(=O)c5c(F)cccc5F)c4)nn4ccccc34)n2)cc(OC)c1OC [Example 120, 2,6-Difluoro-N-{3-[3-(2-{[3,4,5-tris(methyloxy)-phenyl]amino}-4-pyrimidinyl)pyrazolo[1,5-a]pyridin-2-yl]phenyl}benzamide] | 100 to 1000 nM | 100 to 1000 nM |  |  | +++ (B) (at least one pIC50 measurement of greater than 7 against either ErbB2 or EGFR) | 

The next lines start with results.

IC50 ([2]; Homo sapiens, COLO 205, 72 h) | IC50 ([3]; Homo sapiens, BT-474, 72 h) | IC50 [2] | IC50 [3] | SMILES | Activity (Method): pIC50 class against ErbB2 or EGFR [1, 4] | Activity (Method): pIC50 class against ErbB2 or EGFR [1, 5]
> 1000 nM | > 1000 nM |  |  | Cn1cncc1C(=O)Nc1cccc(-c2nn3ccccc3c2-c2ccnc(Nc3cccc(F)c3)n2)c1 [Example 84, N-[3-(3-{2-[(3-fluorophenyl)amino]-4-pyrimidinyl}-pyrazolo[1,5-a]pyridin-2-yl)phenyl]-1-methyl-1H-imidazole-5-carboxamide] | +++ (B) (at least one pIC50 measurement of greater than 7 against either ErbB2 or EGFR) | 
100 to 1000 nM | < 100 nM |  |  | CN(C)CCOc1cccc(Nc2nccc(-c3c(-c4cccc(NC(=O)c5c(F)cccc5F)c4)nn4ccccc34)n2)c1 [Example 61, N-[3-(3-{2-[(3-{[2-(Dimethylamino)ethyl]oxy}-phenyl)amino]-4-pyrimidinyl}pyrazolo[1,5-a]pyridin-2-yl)phenyl]-2,6-difluorobenzamide] | +++ (B) (at least one pIC50 measurement of greater than 7 against either ErbB2 or EGFR) | 
100 to 1000 nM | < 100 nM |  |  | CS(=O)(=O)Cc1ccc(Nc2nccc(-c3c(-c4cccc(NC(=O)c5c(F)cccc5F)c4)nn4ccccc34)n2)cc1 [Example 116, 2,6-Difluoro-N-(3-{3-[2-({4-[(methylsulfonyl)methyl]-phenyl}amino)-4-pyrimidinyl]pyrazolo[1,5-a]pyridin-2-yl}phenyl)benzamide] | +++ (B) (at least one pIC50 measurement of greater than 7 against either ErbB2 or EGFR) | 
100 to 1000 nM | < 100 nM |  |  | CN(C)CCCOc1ccc(Nc2nccc(-c3c(-c4cccc(NC(=O)c5c(F)cccc5F)c4)nn4ccccc34)n2)cc1Cl [Example 126, N-[3-(3-{2-[(3-Chloro-4-{[3-(dimethylamino)propyl]-oxy}phenyl)amino]-4-pyrimidinyl}pyrazolo[1,5-a]pyridin-2-yl)phenyl]-2,6-difluorobenzamide] | +++ (B) (at least one pIC50 measurement of greater than 7 against either ErbB2 or EGFR) | 
> 1000 nM | < 100 nM |  |  | COc1ccc(Nc2nccc(-c3c(-c4cccc(NC(=O)c5c(F)cccc5F)c4)nn4ccccc34)n2)cc1F [Example 29, 2,6-Difluoro-N-{3-[3-(2-{[3-fluoro-4-(methyloxy)-phenyl]amino}-4-pyrimidinyl)pyrazolo[1,5-a]pyridin-2-yl]phenyl}benzamide] |  | ++ (A) (at least one pIC50 measurement greater than 6 against either ErbB2 or EGFR but no measurement greater than pIC50 of 7)
> 1000 nM | > 1000 nM |  |  | O=C(Nc1cccc(-c2nn3ccccc3c2-c2ccnc(Nc3ccc4c(c3)OCCO4)n2)c1)Nc1ccccc1Cl [Example 2, N-(2-Chlorophenyl)-N-(3-{3-[2-(2,3-dihydro-1,4-benzodioxin-6-ylamino)-4-pyrimidinyl]pyrazolo[1,5-a]pyridin-2-yl}phenyl)urea] |  | ++ (A) (at least one pIC50 measurement greater than 6 against either ErbB2 or EGFR but no measurement greater than pIC50 of 7)
